This passage reports Concentration in octanol and Concentration in water results from US5955500A (G. D. Searle & Co., priority 1997, dated 1999).

For this series the following is noted: pH 5, individual replicates.

Structures are written as SMILES. Where “and” joins values, the source holds several entries; their conditions need not be identical. Identical values can stand only once.

For the compound `COc1ccc(CCN(C)CCCC(C#N)(c2ccc(OC)c(OC)c2)C(C)C)cc1OC` (racemic) [compound 70], the Concentration in octanol is 4350 ng/mL and 4200 ng/mL and 4240 ng/mL; the Concentration in water is 5810 ng/mL and 6000 ng/mL and 5380 ng/mL.
Turning to `COc1ccc(CCN(C)CCCC(C#N)(c2ccc(OC)c(OC)c2)C(C)C)cc1OC` (racemic) [compound 90], the Concentration in octanol was 5800 ng/mL and 5290 ng/mL and 4790 ng/mL; the Concentration in water is 5900 ng/mL and 6180 ng/mL and 5100 ng/mL.
